# Test results from US20100310471A1, “ANTIOXIDANT AND PARAMAGNETIC HEPARIN-NITROXIDE DERIVATIVES” (Johannes Gutenberg-Universität Mainz, priority 2007, published 2010).
# What was measured:
# [1] = test system: heparin-binding sites of the vascular wall (rat aorta); experiment: Binding to rat aortic rings, detected by EPR (X-band) after wash with Krebs; conditions: for replacement of heparin-nitroxide from heparin-binding sites of rat aorta by dextran: 100 μM H—NR-2, 1 hr, 37° C., with 1 mM or 10 mM dextran (up to 100 molar excess)
# Experimental: Therefore, the heparin-nitroxide derivative of the present invention is able to specifically bind with high affinity to specific sites in biological vessels.
# FIG. 4. Spectra EPR, (A) 10 μM H—NR-1 solution; (B) rat aortic ring (3 mm long) pre-incubated with 10 μM H—NR-1 for 1 hour and then washed 3 times with Krebs buffer; (C) rat aortic ring (3 mm long) pre-incubated with 10 μM H—NR-1 in the presence of heparin (liquemin, 30 units/ml) for 1 hour and then washed 3 times with Krebs buffer; (D) 5 μM 4-hydroxy-TEMPO; (E) rat aortic ring (3 mm long) pre-incubated with 10 μM 4-hydroxy-TEMPO for 1 hour and then washed 3 times with Krebs buffer. EPR spectra were recorded at room temperature using an X-band radiospectrometer MS200 (Magnettech GmbH, Berlin). Instrument parameters were 10 mW microwave power, 0.1 mT amplitude modulation, 100 kHz modulation frequency, sweep field 5 mT and 60 s sweep time. Representative spectra of 3 experiments are shown.
# FIG. 5. The binding of H—NR-1 to rat aorta as a function of time and concentration. Rat aortic rings (3 mm long) were incubated (37° C.) with 10 μM or 100 μM H—NR-1 either for 0.5 hr, 1 hr, 1.5 hr, 2 hr, 3 hr and then washed out with Krebs solution. To estimate the amount of H—NR-1 bound to tissue, aortic rings were placed in capillaries, and spectra EPR(X-band) were recorded.
# FIG. 6. […] Rat aortic rings (3 mm long) with or without endothelium were incubated (37° C.) with 10 μM H—NR-1 for 1 hr and then washed out with Krebs solution. To estimate the amount of H—NR-1 bound to tissue, aortic rings were placed in capillaries and spectra EPR(X-band) were recorded at room temperature.
# FIG. 12. […] Rat aortic rings (3 mm long) were incubated (37° C.) with 100 μM H—NR-2 for 1 hr and then washed out with Krebs solution. Rings were incubated with H—NR-2 along (A) or in the presence of 1 mM dextran (B), or in the presence of 10 mM dextran (C). To estimate the amount of H—NR-2 bound to tissue, aortic rings were placed in capillaries, and spectra EPR(X-band) were recorded.
# [2] = EPR spectra of H—NRs in aqueous solution (line width); assay type: physicochemical; conditions: 0.1 mM aqueous solutions, pH 7.4, room temperature, X-band
# Experimental: FIG. 2. Spectra EPR of TEMPO and different H—NRs (0.1 mM aqueous solutions, pH 7.4). EPR spectra were recorded at room temperature using an X-band radiospectrometer MS200 (Magnettech GmbH, Berlin). Instrument parameters were 10 mW microwave power, 0.1 mT amplitude modulation, 100 kHz modulation frequency, sweep field 11 mT and 120 s sweep time.
# The line widths of the EPR signals of all H—NRs were slightly broader in comparison to the EPR signal of TEMPOL, indicating slight decrease in the mobility of nitroxyl groups upon binding to heparin as well as spin-spin interactions between them. Thus, ΔH (in gauss) were 1.8, 2.1, 2.5, 2.0 and 2.5 for TEMPOL, H—NR-1, H—NR-2, H—NR-3 and H—NR-4, respectively. The line width the signal is critical for the in vivo EPR imaging. A narrower signal provides for better resolution, and is therefore preferred. As a result, the H—NR-3, in which nitroxide is bound to heparin via a linker, provides for a higher spectral mobility, and is thus preferred for EPR imaging.
# [3] = known value; cited from earlier work
Compound,"binding to rat aorta (EPR signal in tissue after wash) ([1]; aortic ring pre-incubated with 10 μM for 1 hour, washed 3 times with Krebs buffer)","ΔH, line width of the EPR signal [2]",half-life in vivo [3],replacement of heparin-nitroxide from heparin-binding sites of rat aorta by dextran [1],replacement of heparin-nitroxide from heparin-binding sites of rat aorta by dextran ([1]; listed as Dextran)
"CC1(C)CC(O)CC(C)(C)N1[O] [TEMPOL, 4-hydroxy-2,2,6,6-tetramethylpiperidine-N-oxyl]",did not result in the appearance of the EPR signal in tissue,1.8 gauss,only a few minutes,–,–
dextran,–,–,–,unable to replace heparin-nitroxide from the vascular tissue,unable to replace Heparin-nitroxide
